17 compounds from PubChem BioAssay (NCI) can be followed below.

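Cells were grown in 96-well plates and exposed to each compound for 48 hours at five concentrations; endpoints were interpolated linearly between bracketing concentrations, or set to the highest concentration if not reached. TGI is the concentration that stops growth completely.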

Among the test systems are CCRF-CEM leukemia; KM12 colon; SF-539 CNS; BT-549 breast; PC-3 prostate; K-562 leukemia; 786-0 renal; EKVX NSCLC; SF-295 CNS.
What all share (test): growth of human tumour cells (NCI), 48 h

In the case of `COc1cc(/C=C/C=C2\CC/C(=C\C=C\c3ccc(O)c(OC)c3)C2=O)ccc1O`, the TGI with CCRF-CEM leukemia was 8.26 µM; in the test with KM12 colon, above 100 µM; with SF-539 CNS it was above 100 µM; with BT-549 breast it was above 100 µM; in the test on PC-3 prostate it was above 100 µM; in the test on K-562 leukemia it was 52.7 µM. The TGI with 786-0 renal, with EKVX NSCLC and in the test on SF-295 CNS was above 100 µM in each case.

Take `COc1cc2c(cc1Cc1c(F)cccc1Cl)nc(-c1c(F)cccc1Cl)n2Cc1c(F)cccc1Cl`: the TGI in the test with CCRF-CEM leukemia is above 100 µM; with KM12 colon it was above 100 µM; with SF-539 CNS, 60.1 µM; with BT-549 breast it was above 100 µM; with PC-3 prostate, above 100 µM; in the test with K-562 leukemia it was above 100 µM. Moreover, the figures for the TGI with 786-0 renal, in the test with EKVX NSCLC and in the test on SF-295 CNS were 64.2 µM, 69.7 µM and 41.3 µM, respectively.

For the compound `CC(C)OC(=O)OCSc1ccccc1N=Cc1cccc([N+](=O)[O-])c1`, the TGI with CCRF-CEM leukemia, in the test with KM12 colon, in the test with SF-539 CNS, with BT-549 breast, in the test with PC-3 prostate and in the test on K-562 leukemia was above 10 µM each time. Moreover, the TGI with 786-0 renal, in the test on EKVX NSCLC and with SF-295 CNS was above 10 µM in each case.

Regarding `C=C1c2nc3ccccc3n2C=C(c2ccc(Cl)cc2)N1c1ccc(OC)cc1`, the TGI is above 100 µM in the test with CCRF-CEM leukemia; 18.7 µM in the test on KM12 colon; 19.2 µM with SF-539 CNS; 6.88 µM in the test on BT-549 breast; 45.5 µM with PC-3 prostate; above 100 µM in the test on K-562 leukemia. For the same compound, the TGI in the test on 786-0 renal was 20.7 µM; in the test with EKVX NSCLC, 25.9 µM; in the test with SF-295 CNS it was 18.5 µM.

With `COCCOCCOC1=CC(=O)c2c(O)ccc(O)c2C1=O`, the TGI was 4.48 µM with CCRF-CEM leukemia; 3.3 µM with KM12 colon; 3.9 µM with SF-539 CNS; 3.2 µM in the test with BT-549 breast; 6.73 µM with PC-3 prostate; 3.77 µM in the test on K-562 leukemia. Further, the figures for the TGI in the test with 786-0 renal, in the test with EKVX NSCLC and in the test on SF-295 CNS were 3.2 µM, 7.54 µM and 3.23 µM, respectively.

On to `O=c1[nH]c(Nc2cccc(CO)c2)nc2nc[nH]c12`, for which the TGI with CCRF-CEM leukemia, in the test on KM12 colon, in the test with SF-539 CNS, in the test with BT-549 breast, in the test on PC-3 prostate and with K-562 leukemia was above 100 µM in each case. Further, the TGI with 786-0 renal, in the test on EKVX NSCLC and with SF-295 CNS was above 100 µM in each case.

For `COc1cc2ccc1OCc1cccc(n1)COc1ccc(cc1OC)C=Nc1ccc(cc1)N=C2`, the TGI with CCRF-CEM leukemia, in the test with KM12 colon, in the test on SF-539 CNS, in the test on BT-549 breast, with PC-3 prostate and with K-562 leukemia was above 100 µM each time. Further, the TGI in the test on 786-0 renal, with EKVX NSCLC and in the test on SF-295 CNS was above 100 µM each time.

On to `COc1ccc(CC2COc3cc(O)cc(O)c3C2=O)cc1O` (stereo not drawn), for which the TGI in the test on CCRF-CEM leukemia was above 100 µM; in the test with KM12 colon it was 43.9 µM; in the test on SF-539 CNS, 10.1 µM; in the test with BT-549 breast, above 100 µM; in the test on PC-3 prostate it was above 100 µM; with K-562 leukemia it was above 100 µM. For the same compound, the results for the TGI with 786-0 renal, with EKVX NSCLC and with SF-295 CNS were 92.3 µM, above 100 µM and 24.1 µM, respectively.

`NC(=O)N/N=C1\CC2C3CC4C2C4C13` (stereo not drawn): the TGI in the test on CCRF-CEM leukemia, in the test on KM12 colon, in the test on SF-539 CNS, in the test with BT-549 breast, with PC-3 prostate and in the test with K-562 leukemia was above 100 µM in each case. Also, the TGI with 786-0 renal, in the test on EKVX NSCLC and in the test with SF-295 CNS was above 100 µM in each case.

Regarding `O=C(Nc1noc(-c2ccccc2)n1)c1ccccc1CNc1noc(-c2ccccc2)n1`, the TGI in the test on CCRF-CEM leukemia, with KM12 colon, with SF-539 CNS, with BT-549 breast, in the test on PC-3 prostate and in the test with K-562 leukemia was above 100 µM throughout. The TGI in the test with 786-0 renal, in the test on EKVX NSCLC and in the test with SF-295 CNS was above 100 µM each time.

As for `C#CCN(Cc1ccc2nc(OC)c(OC)nc2c1)c1cc(OC)c(OC)c(OC)c1`, the TGI was above 100 µM in the test on CCRF-CEM leukemia; 54.9 µM in the test with KM12 colon; 43.6 µM in the test with SF-539 CNS; above 72.4 µM with BT-549 breast; above 91.5 µM in the test on PC-3 prostate; above 100 µM with K-562 leukemia. Further, the TGI in the test with 786-0 renal was 78.7 µM; in the test with EKVX NSCLC, above 86 µM; in the test on SF-295 CNS, above 100 µM.

For the compound `CC(=O)O[C@H]1CCc2c(cc(N)c3c2C(=O)C[C@]2(C)C([C@H](C)CCCC(C)C)CCC32C)C1(C)C` (stereo partly drawn), the TGI in the test on CCRF-CEM leukemia, in the test with KM12 colon, with SF-539 CNS, in the test on BT-549 breast, in the test with PC-3 prostate and in the test with K-562 leukemia was above 100 µM throughout. For the same compound, the TGI in the test with 786-0 renal, in the test with EKVX NSCLC and in the test with SF-295 CNS was above 100 µM in each case.

As to `O=c1[nH]nc(Cc2ccccc2)n1/N=C/c1ccncc1`, the TGI with CCRF-CEM leukemia, in the test with KM12 colon, in the test with SF-539 CNS, in the test on BT-549 breast, with PC-3 prostate and in the test on K-562 leukemia was above 100 µM each time. Moreover, the TGI in the test on 786-0 renal, with EKVX NSCLC and with SF-295 CNS was above 100 µM each time.

Consider `COC(=O)C1(Cc2ccc3c(c2)CCC3)Cc2ccccc2C1`, for which the TGI is 30.8 µM with CCRF-CEM leukemia; above 100 µM with KM12 colon; above 100 µM in the test on SF-539 CNS; above 100 µM in the test with BT-549 breast; above 100 µM in the test on PC-3 prostate; 51.3 µM with K-562 leukemia. The TGI in the test on 786-0 renal, in the test on EKVX NSCLC and with SF-295 CNS was above 100 µM throughout.

As to `COC1CC(OC2CCC3(C)C(=CCC4C3C(OC(C)=O)C(OC(=O)CC(C)C)C3(C)C(C(C)=O)CCC43O)C2)OC(C)C1OC1CC(OC)C(OC2CC(OC)C(OC3OC(C)C(OC4OC(CO)C(O)C(O)C4O)C(OC)C3O)C(C)O2)C(C)O1` (stereo not drawn), the TGI with CCRF-CEM leukemia was above 7.5 µM; in the test with KM12 colon, above 75 µM; with SF-539 CNS, above 75 µM; with BT-549 breast, above 75 µM; with PC-3 prostate, above 75 µM; in the test on K-562 leukemia, above 75 µM. Besides, the TGI with 786-0 renal, with EKVX NSCLC and with SF-295 CNS was above 75 µM each time.

As for `O=C1CSC2=NC3=C(COC/C3=C\c3ccc(Br)cc3)C(c3ccc(Br)cc3)N12` (stereo not drawn), the TGI in the test on CCRF-CEM leukemia was 61.9 µM; in the test with KM12 colon, above 100 µM; in the test on SF-539 CNS, above 100 µM; in the test on BT-549 breast it was above 100 µM; with PC-3 prostate it was above 100 µM; in the test on K-562 leukemia, above 100 µM. Also, the TGI in the test with 786-0 renal, in the test on EKVX NSCLC and in the test on SF-295 CNS was above 100 µM each time.

For the compound `Cn1c2ccccc2c(=O)c2c(O)cc3c(c21)C=CC1(CCCCC1)O3`, the TGI in the test on CCRF-CEM leukemia, with KM12 colon, in the test with SF-539 CNS, in the test on BT-549 breast, in the test with PC-3 prostate and in the test on K-562 leukemia was above 10 µM in each case. Also, the TGI in the test with 786-0 renal, in the test on EKVX NSCLC and with SF-295 CNS was above 10 µM in each case.
